Where two headings read alike, the source gives them in different places.
Columns and labels:
EcDXPS [1] = molecular target: T1, EcDXPS (Escherichia coli, UniProt P77488); test: DXPS-IspC coupled assay, aerobic, WT EcDXPS; assay type: biochemical, E. coli
T1 construct: made in house
Experimental: Inhibitory activity of compounds against DXPS were monitored via a continuous spectrophotometric coupled assay with DXPS and IspC as previously described.[41],[42] Briefly, Reaction mixtures containing HEPES (100 mM, pH 8.0), MgCl2 (2 mM), NaCl (5 mM), ThDP (1 mM), BSA (1 mg/mL), DXPS (125–500 nM), IspC (1.7 μM), NADPH (160 μM), DMSO (5%, v/v), and inhibitor (0–200 μM) were preincubated at 25 °C (or chamber temperature 25–30 °C) for 5 min. Enzymatic reactions were initiated via the addition of 20 μL of a 10x substrate mix for a final well volume of 200 μL. Reactions were performed in triplicate unless otherwise noted. See the following sections for details and modifications.
When varying pyruvate (0–500 μM), GAP was maintained at 50 μM (3 mM for R478A). When varying GAP (0–500 μM), pyruvate was maintained at 500 μM. The following [DXPS] were used when varying 1: WT EcDXPS, R478A, H431A, D427A (200 nM), R99A (500 nM), WT DrDXPS, WT PaDXPS (150 nM). […] Reactions were incubated and initiated as described above. Immediately following initiation, NADPH depletion was monitored at 340 nm at 25 °C for 7–10 min with a 14–20 second time interval. Initial velocities of DXP formation were determined from the linear portion of the NADPH decay. […] Initial velocities were plotted vs. substrate concentration, and the data were fit to equation 1 (mixed model), 2 (competitive), or 3 (uncompetitive) based on the calculated α value and goodness of fit in GraphPad Prism. Reported standard errors of the mean for Kis are calculated from three replicates.

D427A DXPS = molecular target: T2, D427A DXPS (Escherichia coli, UniProt P77488, D427A); test: DXPS-IspC coupled assay, D427A variant; assay type: biochemical, E. coli
T2 construct: made in house
Experimental: To determine the role of active site network residues in the activity of oximes, inhibitory activity of 1 was assessed against EcD427A, EcH431A, and EcR99A by the DXPS-IspC coupled assay[41],[42] (Fig 4B, S3, Table S1). Ki determination was performed by varying [pyruvate] in order to assess the impact of residue substitutions on the uncompetitive mode of inhibition. […] (8.7 ± 1.2 μM, Fig S3, Table S1).
Inhibitory activity of compounds against DXPS were monitored via a continuous spectrophotometric coupled assay with DXPS and IspC as previously described.[41],[42] […]
When varying pyruvate (0–500 μM), GAP was maintained at 50 μM (3 mM for R478A). […] Immediately following initiation, NADPH depletion was monitored at 340 nm at 25 °C for 7–10 min with a 14–20 second time interval. Initial velocities of DXP formation were determined from the linear portion of the NADPH decay. […] Initial velocities were plotted vs. substrate concentration, and the data were fit to equation 1 (mixed model), 2 (competitive), or 3 (uncompetitive) based on the calculated α value and goodness of fit in GraphPad Prism. Reported standard errors of the mean for Kis are calculated from three replicates.

EcDXPS [2] = molecular target: T1, EcDXPS; test: Inhibition in the presence of CAT or ascorbate; assay type: biochemical, E. coli
Experimental: Given that CAT prevents nonenzymatic oxidative decarboxylation of pyruvate (Fig S8, S12), but influences the redox state of 1, we evaluated the inhibitory activity of 1 in the presence of CAT (Fig 6). […] In this experiment, 1 was incubated at 25 °C for 5 min in the presence of DXPS, IspC, and either CAT or ascorbate prior to initiation by addition of pyruvate and D-GAP. […] In the presence of ascorbate, 1 is primarily in the reduced form according to NMR (Fig S10).
Reaction solutions were prepared containing EcDXPS (150 nM). Solutions contained either DXPS alone or were supplemented with CAT (0.25 mg/mL) or ascorbate (5 mM). Reaction mixtures were incubated with either water or 1 (100 μM) for 5 min at 25 °C. Reactions were initiated with a mixture of pyruvate (110 μM) and GAP (60 μM), or water for background controls. Immediately following initiation, NADPH depletion was monitored at 340 nm at 25 °C for 7.5 min with a 14 second time interval. Initial velocities of DXP formation were measured as described above and arithmetically corrected for background rates and normalized to the DXPS only control reaction for comparison. Reactions were performed in triplicate, and % inhibition was determined arithmetically from initial velocities. Reported standard errors of the mean for Kis are calculated from three replicates.

[3] = NMR detection of redox state of 1; assay type: physicochemical
Experimental: NMR experiments were performed as previously described[16],[24] with the following modifications. Experiments were performed aerobically unless otherwise noted. Anaerobic experiments were performed in the anaerobic chamber up to the point of transfer to NMR tubes which were capped with rubber septa to exclude oxygen once removed from the chamber. […] Solutions were also prepared aerobically in the presence of ascorbate (5 mM) and CAT (0.25 mg/mL). Oxime 1 (500 μM) was then added and solutions were incubated at 4 °C for 20 min. After incubation, 600 μL of each solution were transferred to labeled NMR tubes. 1D ^1H-NMR and 1D ^1H detected H{^13C} and H3{^13C} spectra via a proton multiplicity filter, which selects for ^13C nuclei attached to an odd number of protons, were acquired on a Bruker Avance 600 MHz or a Bruker Avance NEO 600 MHz spectrometer (HEPES anaerobic and Tris anaerobic) equipped with a TCI cryogenic probe equipped with z-gradients with a cryo-cooled ^13C preamplifier, resulting in high sensitivity for ^13C detection. Spectra were acquired at 600 MHz (^1H) and 150 MHz (^13C), at 25 °C utilizing a 90° ^1H excitation pulse (optimized for maximum signal-to-noise per unit time), 128 scans/FID (^1H-NMR), 200 ms acquisition time/FID, and a 3s relaxation day between successive scans, or 64 scans/FID (^1H detected H{^13C} and H3{^13C}), 200 ms acquisition time/FID, and a 5s relaxation day between successive scans.

Structure (SMILES): ON=Cc1cc(O)c(O)cc1O [compound 1, 2,4,5-trihydroxybenzaldoxime]
- %Inhibition at 200 μM 1 (EcDXPS [1]; WT DXPS, HEPES pH 8, 200 μM): ~ 79%
- MOI varying D-GAP (EcDXPS [1]; WT EcDXPS, aerobic): competitive
- MOI varying pyruvate (EcDXPS [1]; WT EcDXPS, aerobic): uncompetitive
- inhibition at 200 µM (EcDXPS [1]; pH 8, read-out: %Inhibition at 200 μM 1, WT DXPS, HEPES pH 8, 200 μM): 79.2 ± 0.2%
- Ki (D427A DXPS): 4.8 ± 0.2 µM
- MOI varying pyruvate (D427A DXPS; EcD427A): uncompetitive
- inhibition at 100 µM (EcDXPS [2]; read-out: %Inhibition at 100 μM 1, Ascorbate 5 mM, aerobic, 100 μM): 23%
- inhibition at 100 µM (EcDXPS [2]; read-out: %Inhibition at 100 μM 1, CAT 0.25 mg/mL, aerobic, 100 μM): 80%
- inhibition at 100 µM (EcDXPS [2]; read-out: %Inhibition at 100 μM 1, Control (DXPS alone), aerobic, 100 μM): 80 ± 0.5%
- redox state by 1H-NMR ([3]; 500 μM, HEPES 50 mM pH 8, aerobic): partially
- redox state by 1H-NMR ([3]; 500 μM, HEPES pH 8, aerobic, ascorbate 5 mM): reduced
- redox state by 1H-NMR ([3]; 500 μM, HEPES pH 8, aerobic, catalase 0.25 mg/mL): mostly oxidized
- redox state by 1H-NMR ([3]; 500 μM, Tris 50 mM pH 8, aerobic): mostly
- redox state by 1H-NMR ([3]; 500 μM, acidic pH (MES pH 6.2), aerobic): mostly reduced
- redox state by 1H-NMR ([3]; 500 μM, neutral and basic pH (phosphate pH 7, CHES pH 9), aerobic): oxidized
- redox state by 1H-NMR ([3]; 12.5 mM, HEPES 100 mM pH 8, aerobic): primarily in the reduced state
- redox state by 1H-NMR ([3]; anaerobic conditions): primarily in its reduced form

Source: doi:10.1101/2025.03.03.641193, “Trihydroxybenzaldoximes are redox cycling inhibitors of ThDP-dependent DXP synthase” (bioRxiv, 2025)
